Laboratory results published in patent publication US9586961B2, “Homopiperazine derivatives as protein tyrosine kinase inhibitors and pharmaceutical use thereof” (LEO PHARMA A/S, priority 2010, dated 2017).
pEC50: −log10 of the molar value.

Tests used:
Type in all cases: biochemical
JAK3 = molecular target: T1, JAK3 (Homo sapiens, UniProt P52333); assay: JAK3 kinase assay (HTRF, inhibition of phosphorylation of a synthetic peptide); settings: catalytic domain, His-tag; 2 μM ATP (Km); read-out: JAK3 kinase inhibitory activity (EC50)
T1 construct: All four purified enzymes contain only the catalytic domain; His (N); purchased Carna Biosciences, Inc; host or cells: baculovirus expression system
Procedure, shortened: (§1)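 HTRF detection (streptavidin-XL665, cryptate anti-phospho antibody, overnight in the dark) after EDTA stop of a 20-30 min RT reaction on 1 μM TK substrate-biotin. Km-level ATP per kinase: 7 μM for JAK1 and 13 μM for TYK2, both N-terminal GST, with 50 nM SEB; 4 μM for JAK2 and 2 μM for JAK3, both His-tagged. Catalytic domains only; DMSO 0.75%.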

JAK1 = molecular target: T2, JAK1 (Homo sapiens, UniProt P23458); assay: JAK1 kinase assay (HTRF, inhibition of phosphorylation of a synthetic peptide); settings: catalytic domain aa 850-1154, GST-tag; 7 μM ATP (Km); read-out: JAK1 kinase inhibitory activity (EC50)
T2 construct: JAK1 (aa 850-1154) and TYK2 (aa 871-1187) are expressed with an N-terminally fused GST-tag; GST (N); purchased Carna Biosciences, Inc; host or cells: baculovirus expression system
Procedure, shortened: as §1

TYK2 = molecular target: T3, TYK2 (Homo sapiens, UniProt P29597); assay: TYK2 kinase assay (HTRF, inhibition of phosphorylation of a synthetic peptide); settings: catalytic domain aa 871-1187, GST-tag; 13 μM ATP (Km); read-out: TYK2 kinase inhibitory activity (EC50)
T3 construct: JAK1 (aa 850-1154) and TYK2 (aa 871-1187) are expressed with an N-terminally fused GST-tag; GST (N); purchased Carna Biosciences, Inc; host or cells: baculovirus expression system
T3 sequence (P29597 871-1187): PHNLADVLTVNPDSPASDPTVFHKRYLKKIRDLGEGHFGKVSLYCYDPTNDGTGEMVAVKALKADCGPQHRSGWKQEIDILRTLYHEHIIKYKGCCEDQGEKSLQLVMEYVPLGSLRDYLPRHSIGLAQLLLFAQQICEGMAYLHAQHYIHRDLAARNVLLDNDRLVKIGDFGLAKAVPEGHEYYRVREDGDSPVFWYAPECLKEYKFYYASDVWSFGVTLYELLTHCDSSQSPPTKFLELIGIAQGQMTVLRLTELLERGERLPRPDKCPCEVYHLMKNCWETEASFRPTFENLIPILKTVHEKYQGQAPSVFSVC
Procedure, shortened: as §1

JAK2 = molecular target: T4, JAK2 (Homo sapiens, UniProt O60674); assay: JAK2 kinase assay (HTRF, inhibition of phosphorylation of a synthetic peptide); settings: catalytic domain, His-tag; 4 μM ATP (Km); read-out: JAK2 kinase inhibitory activity (EC50)
T4 construct: All four purified enzymes contain only the catalytic domain; His (N); purchased Carna Biosciences, Inc; host or cells: baculovirus expression system
Procedure, shortened: as §1

T2 sequence (P23458 850-1154): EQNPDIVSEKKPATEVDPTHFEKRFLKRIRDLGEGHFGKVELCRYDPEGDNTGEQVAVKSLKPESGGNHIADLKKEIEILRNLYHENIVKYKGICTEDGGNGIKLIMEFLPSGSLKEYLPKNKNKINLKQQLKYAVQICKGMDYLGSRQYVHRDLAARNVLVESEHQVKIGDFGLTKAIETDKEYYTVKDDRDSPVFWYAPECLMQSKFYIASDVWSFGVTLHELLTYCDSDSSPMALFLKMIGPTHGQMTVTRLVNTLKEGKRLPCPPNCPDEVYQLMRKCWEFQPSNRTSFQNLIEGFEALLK
T4 sequence (O60674 849-1124 limits assumed): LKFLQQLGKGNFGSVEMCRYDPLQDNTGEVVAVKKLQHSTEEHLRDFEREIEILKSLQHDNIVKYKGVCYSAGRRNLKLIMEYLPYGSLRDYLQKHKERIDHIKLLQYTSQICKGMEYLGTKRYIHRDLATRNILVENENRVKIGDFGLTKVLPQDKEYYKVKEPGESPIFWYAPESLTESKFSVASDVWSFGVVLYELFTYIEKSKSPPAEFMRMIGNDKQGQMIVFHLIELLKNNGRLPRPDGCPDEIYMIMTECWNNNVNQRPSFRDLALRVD
T1 sequence (P52333 822-1111 limits assumed): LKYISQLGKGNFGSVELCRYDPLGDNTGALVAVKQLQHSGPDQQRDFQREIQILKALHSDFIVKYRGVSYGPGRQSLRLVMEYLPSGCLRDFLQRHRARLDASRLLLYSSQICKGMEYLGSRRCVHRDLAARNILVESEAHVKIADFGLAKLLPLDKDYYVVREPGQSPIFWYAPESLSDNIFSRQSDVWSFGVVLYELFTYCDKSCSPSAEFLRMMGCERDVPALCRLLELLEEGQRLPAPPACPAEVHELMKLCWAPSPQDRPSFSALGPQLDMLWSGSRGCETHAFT

| Structure (SMILES) | pEC50 (JAK3) | pEC50 (JAK1) | pEC50 (TYK2) | pEC50 (JAK2) |
| --- | --- | --- | --- | --- |
| N#Cc1ccc(C(=O)N2CCN(c3ncnc4[nH]ccc34)CC3(CC3)C2)s1 [Example 51, 5-[5-(7H-pyrrolo[2,3-d]pyrimidin-4-yl)-5,8-diazaspiro[2.6]nonane-8-carbonyl]thiophene-2-carbonitrile] | > 7.00 | > 7.00 | 6.00 to 7.00 | > 7.00 |
| Nc1nc(N2CCCN(Cc3ccccc3)C3(CC3)C2)c2cc[nH]c2n1 [Example 67, 4-(9-benzyl-5,9-diazaspiro[2.6]nonan-5-yl)-7H-pyrrolo[2,3-d]pyrimidin-2-amine] | < 6.00 | < 6.00 | < 6.00 | < 6.00 |
| N#CC1(C(=O)N2CCN(c3ncnc4[nH]ccc34)CC3(CC3)C2)CCOCC1 [Example 41, 4-[5-(7H-pyrrolo[2,3-d]pyrimidin-4-yl)-5,8-diazaspiro[2.6]nonane-8-carbonyl]tetrahydropyran-4-carbonitrile] | 6.00 to 7.00 | < 6.00 | < 6.00 | 6.00 to 7.00 |
| CN(C1CCCCC1)S(=O)(=O)N1CCN(c2ncnc3[nH]ccc23)CC2(CC2)C1 [Example 105, N-cyclohexyl-N-methyl-5-(7H-pyrrolo[2,3-d]pyrimidin-4-yl)-5,8-diazaspiro[2.6]nonane-8-sulfonamide] | < 6.00 | 6.00 to 7.00 | < 6.00 | 6.00 to 7.00 |
| NS(=O)(=O)c1csc(C(=O)N2CCN(c3ncnc4[nH]ccc34)CC3(CC3)C2)c1 [Example 27, 5-[5-(7H-pyrrolo[2,3-d]pyrimidin-4-yl)-5,8-diazaspiro[2.6]nonane-8-carbonyl]thiophene-3-sulfonamide] | > 7.00 | 6.00 to 7.00 | < 6.00 | > 7.00 |
| CCC1=NOC(C(=O)N2CCCN(c3ncnc4[nH]ccc34)CC23CC3)C1 (racemic) [Example 123, (3-ethyl-4,5-dihydroisoxazol-5-yl)-[5-(7H-pyrrolo[2,3-d]pyrimidin-4-yl)-5,9-diazaspiro[2.6]nonan-9-yl]methanone] | 6.00 to 7.00 | 6.00 to 7.00 | < 6.00 | 6.00 to 7.00 |
| O=C(Cc1ccc(Br)cc1)N1CCN(c2ncnc3[nH]ccc23)CC2(CC2)C1 [Example 264, 2-(4-bromophenyl)-1-[5-(7H-pyrrolo[2,3-d]pyrimidin-4-yl)-5,8-diazaspiro[2.6]nonan-8-yl]ethanone] | > 7.00 | > 7.00 | 6.00 to 7.00 | > 7.00 |
| NS(=O)(=O)c1ccc(C(=O)N2CCN(c3ncnc4[nH]ccc34)CC3(CC3)C2)cc1Cl [Example 32, 2-chloro-4-[5-(7H-pyrrolo[2,3-d]pyrimidin-4-yl)-5,8-diazaspiro[2.6]nonane-8-carbonyl]benzenesulfonamide] | 6.00 to 7.00 | > 7.00 | < 6.00 | 6.00 to 7.00 |
| Nc1nonc1C(=O)N1CCCN(c2ncnc3[nH]ccc23)CC12CC2 [Example 256, (4-amino-1,2,5-oxadiazol-3-yl)-[5-(7H-pyrrolo[2,3-d]pyrimidin-4-yl)-5,9-diazaspiro[2.6]nonan-9-yl]methanone] | > 7.00 | > 7.00 | 6.00 to 7.00 | > 7.00 |
| N#CCOc1ccc(CC(=O)N2CCN(c3ncnc4[nH]ccc34)CC3(CC3)C2)cc1 [Example 16, 2-[4-[2-oxo-2-[5-(7H-pyrrolo[2,3-d]pyrimidin-4-yl)-5,8-diazaspiro[2.6]nonan-8-yl]ethyl]phenoxy]acetonitrile] | 6.00 to 7.00 | > 7.00 | < 6.00 | > 7.00 |
| N#CC1(C(=O)N2CCCN(c3ncnc4[nH]ccc34)CC23CC3)CC1 [Example 60, 1-[5-(7H-pyrrolo[2,3-d]pyrimidin-4-yl)-5,9-diazaspiro[2.6]nonane-9-carbonyl]cyclopropanecarbonitrile] | 6.00 to 7.00 | 6.00 to 7.00 | < 6.00 | > 7.00 |

The next lines start with the values.

| pEC50 (JAK3) | pEC50 (JAK1) | pEC50 (TYK2) | pEC50 (JAK2) | Structure (SMILES) |
| --- | --- | --- | --- | --- |
| 6.00 to 7.00 | 6.00 to 7.00 | 6.00 to 7.00 | > 7.00 | N#Cc1cccc(C(=O)N2CCCN(c3ncnc4[nH]ccc34)CC23CC3)c1 [Example 57, 3-[5-(7H-pyrrolo[2,3-d]pyrimidin-4-yl)-5,9-diazaspiro[2.6]nonane-9-carbonyl]benzonitrile] |
| 6.00 to 7.00 | > 7.00 | < 6.00 | 6.00 to 7.00 | O=C(CC1CCCC1)N1CCCN(c2ncnc3[nH]ccc23)CC12CC2 [Example 92, 2-cyclopentyl-1-[5-(7H-pyrrolo[2,3-d]pyrimidin-4-yl)-5,9-diazaspiro[2.6]nonan-9-yl]ethanone] |
| < 6.00 | < 6.00 | < 6.00 | < 6.00 | N#Cc1cccc(CC(=O)N2CCCN(c3ncnc4[nH]ccc34)CC23CC3)c1 [Example 58, 3-[2-oxo-2-[5-(7H-pyrrolo[2,3-d]pyrimidin-4-yl)-5,9-diazaspiro[2.6]nonan-9-yl]ethyl]benzonitrile] |
| < 6.00 | 6.00 to 7.00 | < 6.00 | 6.00 to 7.00 | COc1cc(C(=O)N2CCN(c3ncnc4[nH]ccc34)CC3(CC3)C2)ccc1S(N)(=O)=O [Example 53, 2-methoxy-4-[5-(7H-pyrrolo[2,3-d]pyrimidin-4-yl)-5,8-diazaspiro[2.6]nonane-8-carbonyl]benzenesulfonamide] |
| 6.00 to 7.00 | 6.00 to 7.00 | < 6.00 | 6.00 to 7.00 | Cn1c(C(=O)N2CCN(c3ncnc4[nH]ccc34)CC3(CC3)C2)ccc1S(N)(=O)=O [Example 35, 1-methyl-5-[5-(7H-pyrrolo[2,3-d]pyrimidin-4-yl)-5,8-diazaspiro[2.6]nonane-8-carbonyl]pyrrole-2-sulfonamide] |
| 6.00 to 7.00 | > 7.00 | 6.00 to 7.00 | > 7.00 | O=C(c1ccon1)N1CCCN(c2ncnc3[nH]ccc23)CC12CC2 [Example 153, isoxazol-3-yl-[5-(7H-pyrrolo[2,3-d]pyrimidin-4-yl)-5,9-diazaspiro[2.6]nonan-9-yl]methanone] |
| 6.00 to 7.00 | > 7.00 | 6.00 to 7.00 | > 7.00 | NS(=O)(=O)c1ccc(/C=C/C(=O)N2CCN(c3ncnc4[nH]ccc34)CC3(CC3)C2)cc1 [Example 54, 4-[(E)-3-oxo-3-[5-(7H-pyrrolo[2,3-d]pyrimidin-4-yl)-5,8-diazaspiro[2.6]nonan-8-yl]prop-1-enyl]benzenesulfonamide] |
| 6.00 to 7.00 | 6.00 to 7.00 | < 6.00 | 6.00 to 7.00 | O=C(CCC(F)(F)F)N1CCN(c2ncnc3[nH]ccc23)CCC12CC2 [Example 45, 4,4,4-trifluoro-1-[6-(7H-pyrrolo[2,3-d]pyrimidin-4-yl)-6,9-diazaspiro[2.6]nonan-9-yl]butan-1-one] |
| < 6.00 | < 6.00 | < 6.00 | < 6.00 | Cc1ccc(S(=O)(=O)N2CCCN(c3ncnc4[nH]ccc34)CC23CC3)cc1 [Example 94, 4-[9-(p-tolylsulfonyl)-5,9-diazaspiro[2.6]nonan-5-yl]-7H-pyrrolo[2,3-d]pyrimidine] |
| > 7.00 | > 7.00 | 6.00 to 7.00 | > 7.00 | NS(=O)(=O)c1ccc(CC(=O)N2CCN(c3ncnc4[nH]ccc34)CC3(CC3)C2)s1 [Example 76, 5-[2-oxo-2-[5-(7H-pyrrolo[2,3-d]pyrimidin-4-yl)-5,8-diazaspiro[2.6]nonan-8-yl]ethyl]thiophene-2-sulfonamide] |
| 6.00 to 7.00 | 6.00 to 7.00 | < 6.00 | > 7.00 | CNS(=O)(=O)c1cc(C(=O)N2CCN(c3ncnc4[nH]ccc34)CC3(CC3)C2)sc1C [Example 26, N,2-dimethyl-5-[5-(7H-pyrrolo[2,3-d]pyrimidin-4-yl)-5,8-diazaspiro[2.6]nonane-8-carbonyl]thiophene-3-sulfonamide] |
| 6.00 to 7.00 | 6.00 to 7.00 | < 6.00 | 6.00 to 7.00 | N#CCOc1cccc(CC(=O)N2CCN(c3ncnc4[nH]ccc34)CC3(CC3)C2)c1 [Example 17, 2-[3-[2-oxo-2-[5-(7H-pyrrolo[2,3-d]pyrimidin-4-yl)-5,8-diazaspiro[2.6]nonan-8-yl]ethyl]phenoxy]acetonitrile] |
| > 7.00 | > 7.00 | 6.00 to 7.00 | > 7.00 | N#CCC(=O)N1CCN(c2ncnc3[nH]ccc23)CC2(CC2)C1 [Example 5, 3-oxo-3-[8-(7H-pyrrolo[2,3-d]pyrimidin-4-yl)-5,8-diazaspiro[2.6]non-5-yl]propionitrile] |
| 6.00 to 7.00 | > 7.00 | < 6.00 | 6.00 to 7.00 | S=C(CC1CCCC1)N1CCCN(c2ncnc3[nH]ccc23)CC12CC2 [Example 95, 2-cyclopentyl-1-[5-(7H-pyrrolo[2,3-d]pyrimidin-4-yl)-5,9-diazaspiro[2.6]nonan-9-yl]ethanethione] |
